Like-named read-outs stand apart in the source and are kept apart here.
Experiment: 1H NMR-pH titration, protonation constants
Format: physicochemical
Conditions: for pKa: H2O:D2O = 9:1 solvent mixture, converted from optimized microscopic basicity parameters (site-binding model)
Protocol: The pH meter readings were recorded using a Metrohm pH meter, equipped with a Metrohm 6.0234.110 combined glass electrode. A four-point calibration using pH 2.00, pH 4.00, pH 7.00 and pH 11.00 standard buffer solutions were performed directly before pH adjustments. The pH measurements were performed in 25 mL vessels with proper stirring before transferring 600 μL sample solutions into the NMR tubes. Solutions were prepared in the pH range of 1.50–8.70 with 0.30 increments using 0.9 M, 0.5 M and 0.1 M sodium hydroxide and hydrochloric acid solutions in H2O:D2O = 9:1.
For structural characterizations of CD derivatives in D2O, a 600 MHz Varian DDR NMR spectrometer equipped with a 5 mm inverse-detection gradient probe or a 400 MHz Varian Mercury Plus spectrometer equipped with a 5mm Varian 400 Automation Triple Resonance Broadband Pulsed Field Gradient probe was used. For NMR-pH titrations, the same instruments were used. The pH-dependent series of ^1H NMR spectra were recorded in a solvent mixture of H2O:D2O = 9:1 by volume, where the constant ionic strength and the buffer capacity were adjusted using 0.05 M sodium chloride and 0.05 M acetic acid-d4. An appropriate amount of CD was weighed to obtain a 1 mM solution and finally one drop of methanol was added as a chemical shift reference (3.310 ppm). The water resonance was diminished by the dpfgse pulse sequence or presaturation. All the spectra were processed using the MestReNova v9.0.1-13254 (Mestralab Research, S.L., Santiago de Compostela, Spain) software.
The standard macroscopic evaluation of NMR-pH titration curves (Equation (3) in Section 2.2) was performed with the following software tools: Microcal Origin Pro 8 (OriginLab Corp., Northampton, MA, USA), HypNMR2018 [38], OPIUM [39] and home-written R scripts (R version 4.1.2, The R Foundation, Vienna, Austria) using the nls module. The equidistant macroscopic (Equation (8)) and Q-fitting (Equations (4) and (11)) models were fitted both by Origin and our R-scripts to verify their equivalent performance regarding statistical description of the parameter estimates. The microscopic cluster expansion model in Section 2.5 requires summation of >100 variables which is unfeasible in the form of an explicit model function required by commercial data-fitting software like Origin. The enumeration of microspecies was therefore accomplished in a custom-written R script. To assess the robustness of our data-fitting model as well as the error propagation of the optimized log k and pε parameters to the derived log K macroconstants, Monte Carlo simulations on >1000 replicates were performed in R.

[1] = ED macro or Q-fitting evaluation, ? = physically unrealistic, SD in parentheses
[2] = ED macro or Q-fitting evaluation, H2O:D2O = 9:1, 0.05 M NaCl, SD in parentheses
[3] = from ED macro or Q-fitting macroconstants by Eq. 18
[4] = site-binding (SB) microscopic evaluation
[5] = site-binding (SB) microscopic evaluation, converted from log kA and pε, errors by Monte Carlo
[6] = site-binding model with two interactivity parameters, standard deviation 138, overparametrized

## O=C(O)CCSC[C@H]1O[C@@H]2O[C@H]3[C@H](O)[C@@H](O)[C@@H](O[C@H]4[C@H](O)[C@@H](O)[C@@H](O[C@H]5[C@H](O)[C@@H](O)[C@@H](O[C@H]6[C@H](O)[C@@H](O)[C@@H](O[C@H]7[C@H](O)[C@@H](O)[C@@H](O[C@H]1[C@H](O)[C@H]2O)O[C@@H]7CSCCC(=O)O)O[C@@H]6CSCCC(=O)O)O[C@@H]5CSCCC(=O)O)O[C@@H]4CSCCC(=O)O)O[C@@H]3CSCCC(=O)O [Suα-CD, sualphadex]
[1]
  log K4: 4.70 (0.14)
  log K6: 3.77 (0.07)
[2]
  log K1: 6.43 (0.07)
  log K2: 5.79 (0.09)
  log K3: 5.26 (0.11)
read-out: macroscopic pKa, 1st of the set
  pKa: 3.84
read-out: macroscopic pKa, 2nd of the set
  pKa: 4.35
read-out: macroscopic pKa, 3rd of the set
  pKa: 4.81
read-out: macroscopic pKa, 4th of the set
  pKa: 5.31
read-out: macroscopic pKa, 5th of the set
  pKa: 5.78
read-out: macroscopic pKa, 6th of the set
  pKa: 6.28
[3]
  log k¯1 (averaged microconstant): 5.65 (0.07)
  log k¯2 (averaged microconstant): 5.39 (0.09)
  log k¯3 (averaged microconstant): 5.13 (0.12)
From ED macro or Q-fitting macroconstants by Eq. 18, ? = physically unrealistic
  log k¯6 (averaged microconstant): 4.55 (0.07)
[4]
  log k¯1 (averaged microconstant): 5.51 (0.02)
  log k¯2 (averaged microconstant): 5.38 (0.02)
  log k¯3 (averaged microconstant): 5.18 (0.02)
  log k¯4 (averaged microconstant): 4.94 (0.02)
  log k¯5 (averaged microconstant): 4.75 (0.02)
  log k¯6 (averaged microconstant): 4.62 (0.02)
[5]
  log K1: 6.28 (0.02)
  log K2: 5.78 (0.02)
  log K3: 5.31 (0.02)
  log K4: 4.81 (0.02)
  log K5: 4.35 (0.02)
  log K6: 3.84 (0.02)
site-binding model with two interactivity parameters (pε12 and pε13), overparametrized
  log kA: 5.63 (7)
[6]
  pε12: 0.28
  pε13: 0.28
site-binding model without any pair-interactivity parameters (unsatisfactory fit)
  log k: 5.049
